This is an account of results in patent US6525022B1, “Receptor specific atrial natriuretic peptides” (Genentech, Inc., priority 1993, dated 2003).

For test [1], the system named is rhesus monkey kidney membranes (NPR-A and NPR-C). The test is described as follows: Competition binding in rhesus monkey kidney membranes. The note with it: FIG. 11, rhesus monkey kidney membranes. How it is done:
For preparation of membranes from Rhesus monkey tissues, frozen tissue was placed between parafilm and broken up into pieces by hitting with a hammer. Tissue was transferred to a 125 mL polypropylene tube containing 100 mL of ice-cold buffer #1 (50 mM HEPES, pH 7.4, 1 mM EDTA, 250 mM sucrose, 0.7 mg/mL pepstatin A, 0.5 mg/mL leupeptin, 1 mM PMSF, and 1 mM phosphoramidon). Tissue was homogenized with a Brinkman polytron on a setting of 5 two times for 10 sec. The sample was placed on ice between homogenizations. 11 mL of 30 mM MgCl2/100 mM NaCl containing 1 mM phosphoramidon was added to the homogenate. The homogenate was spun at 400×g for 10 min at 4° C. in a HB-4 rotor. The supernatant was transferred to another tube and spun as above. The supernatant was passed though four layers of sterile gauze then centrifuged at 30,000×g for 20 min at 4° C. in a 60 Ti rotor. […]
(§1) Membrane competition binding assays. […] The plates were washed six times with PBS, then air dried prior to adding scintillant and counted in a Packard Topcount scintillation counter for 1 min/well. Binding was measured in duplicate for each concentration of competitor.
(§2) Data analysis. The competition binding curves and cGMP production dose responses were analyzed by the four-parameter logistic equation with the KaleidaGraph™ program (Synergy Software, PA) to obtain estimates of the IC50 or EC50 values. […]

The target of a further test is T1, hNPR-C (Homo sapiens, UniProt P17342).
T1 sequence (P17342 27-541): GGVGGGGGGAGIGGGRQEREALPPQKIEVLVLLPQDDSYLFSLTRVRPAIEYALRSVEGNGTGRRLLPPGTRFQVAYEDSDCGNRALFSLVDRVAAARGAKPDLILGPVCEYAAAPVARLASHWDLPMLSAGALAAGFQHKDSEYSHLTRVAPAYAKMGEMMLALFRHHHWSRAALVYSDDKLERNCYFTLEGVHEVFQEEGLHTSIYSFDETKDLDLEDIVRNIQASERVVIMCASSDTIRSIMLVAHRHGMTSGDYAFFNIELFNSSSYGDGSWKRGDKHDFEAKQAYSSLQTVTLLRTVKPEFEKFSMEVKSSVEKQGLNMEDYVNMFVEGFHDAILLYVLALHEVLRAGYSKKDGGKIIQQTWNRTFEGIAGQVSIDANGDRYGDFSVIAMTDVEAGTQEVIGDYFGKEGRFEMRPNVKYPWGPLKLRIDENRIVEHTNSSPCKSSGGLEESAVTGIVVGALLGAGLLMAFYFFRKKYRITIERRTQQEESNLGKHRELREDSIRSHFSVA
The test is described as follows: Competitive binding to membranes from cells expressing human NPR-C. More on the design: expressed in transfected cells. The note with it: FIG. 19, in comparison to rat ANP. How it is done:
Membrane preparation. Stable cell lines expressing human NPR-A (Lowe and Fendly, J. Biol. Chem. 267:21691-21697 (1992)) or human NPR-C (Cunningham et al., EMBO J 13, 2508-2515 (1994)) were removed from cell culture dishes with 0.5 mM EDTA in phosphate buffered saline (PBS), placed in ice cold PBS and centrifuged at 228 g for 10 min at 4° C. The cell pellets were resuspended in ice-cold homogenization buffer (50 mM HEPES, 1 mM EDTA, 1 mM DTT, 0.25 M sucrose, 0.7 mg/mL pepstatin A, 0.5 mg/mL leupeptin and 1 mM PMSF, pH 7.4). The cells were then homogenized using a Brinkman polytron at setting 5 for 30 sec. The homogenate was centrifuged at 400×g for 10 min at 4° C. The supernatant was collected and centrifuged at 100,000×g for 30 min at 4° C. […] Protein concentrations was determined using the Biorad protein assay with IgG as a standard.
as §1, §2

Take `CC[C@H](C)[C@@H]1NC(=O)[C@H](CCCNC(=N)N)NC(=O)[C@H](CC(=O)O)NC(=O)[C@H]([C@@H](C)CC)NC(=O)[C@H](CO)NC(=O)CNC(=O)[C@H]([C@@H](C)O)NC(=O)[C@H](Cc2ccccc2)NC(=O)[C@@H](NC(=O)[C@H](CO)NC(=O)[C@H](CO)NC(=O)[C@H](CCCNC(=N)N)NC(=O)[C@H](CCCNC(=N)N)NC(=O)[C@H](CC(C)C)NC(=O)[C@@H](N)CO)CSSC[C@@H](C(=O)N[C@@H](CC(N)=O)C(=O)N[C@@H](CO)C(=O)N[C@@H](Cc2ccccc2)C(=O)N[C@@H](CCCNC(=N)N)C(=O)N[C@@H](Cc2ccc(O)cc2)C(=O)O)NC(=O)CNC(=O)[C@H](CC(C)C)NC(=O)CNC(=O)[C@H](CO)NC(=O)[C@H](CCC(N)=O)NC(=O)[C@H](C)NC(=O)[C@H](CCCNC(=N)N)NC1=O` [ANF 27]: in test [1], the “Displacement of 125I-rat ANP binding” value is recorded as “a smaller portion of the total binding is displaced”. Besides, the “Binding to human NPR-C membranes, competition for 125I-rat ANP” value on hNPR-C is “does not effectively bind”.
